ChEMBL document CHEMBL1152144, “In situ blood-brain barrier permeability of a C-10 paclitaxel carbamate” (Bioorg Med Chem Lett, 2008)

Tested on: Brain
Experiment: Blood-brain barrier permeability in B6C3 mouse brain assessed as increase in drug level at 0.1 uCi, iv relative to [14C]paclitaxel
Assay type: ADME, organism-based
Settings: in vivo

Row | SMILES | fold change (FC)
1 | CC(=O)O[C@@]12CO[C@@H]1C[C@H](O)[C@@]1(C)C(=O)[C@H](OC(=O)N[14CH2][14CH2]O)C3=C(C)[C@@H](OC(=O)[C@H](O)[C@@H](NC(=O)c4ccccc4)c4ccccc4)C[C@@](O)([C@@H](OC(=O)c4ccccc4)[C@H]21)C3(C)C | 3
2 | CC(=O)O[C@@]12CO[C@@H]1C[C@H](O)[C@@]1(C)C(=O)[C@H](OC(=O)CCC(=O)O)C3=C(C)[C@@H](OC(=O)[C@H](O)[C@@H](NC(=O)c4ccccc4)c4ccccc4)C[C@@](O)([C@@H](OC(=O)c4ccccc4)[C@H]21)C3(C)C | 6
